Laboratory results published in patent US7060694B2, “High potency dihydroergotamine compositions” (Pozen Inc., priority 1999, dated 2006).

Key:
[1] = format: in vivo, human; settings: after either treatment (MT 300 sc or DHE 45 im), LLOQ 50 pg/ml
Experimental: The study described above in Example 2 utilizes an incomplete crossover design. This protocol is amended to provide a direct comparison of the tolerance and pharmacokinetics of a 2 mg/ml (2.9 mM) formulation of MT 300 (Formulation A-2) and DHE 45®. The present experiment is a randomized, open-label, two period, […], crossover study comparing subcutaneous administration of 1.2 mg of MT 300 and intramuscular administration of 1 mg of DHE 45®. Plasma dihydroergotamine and the 8-hydroxydihydroergotamine metabolite are measured with an LC/MS/MS method, with a LLOQ of 50 pg/ml for both DHE and 8-OH DHE. Serial blood samples are collected for 72 hours after the dose. Seven of 8 subjects complete this study. One subject withdraws from the study due to difficulty in obtaining the blood samples. The adverse event profile is similar to that observed in the study of Example 2.

[2] = Example 4: overall tolerance profile (adverse events) of subjects administered DHE; format: in vivo, human; settings: DHE concentration increased from 1.5 mM to 2.9 mM or more, total quantity of DHE constant
Excerpt: Adverse events occur in 20 of 33 subjects treated with MT 300 and 8 of 13 subjects treated with DHE 45®.

[3] = Animal studies of DHE absorption with caffeine; format: in vivo; settings: caffeine at 10:1 weight ratio relative to DHE
[4] = DHE given subcutaneously at 1.5 mM; cited from earlier work
[5] = Solubility of DHE in aqueous formulations with caffeine

| Compound | plasma levels of 8-OH DHE metabolite [1] | side effects, particularly nausea [2] | drug absorption characteristics [3] | nausea in treated patients [4] | solubility of DHE in aqueous formulations [5] |
| --- | --- | --- | --- | --- | --- |
| 8-hydroxydihydroergotamine [8-OH DHE] | No significant levels |  |  |  |  |
| CN1C[C@H](C(=O)N[C@]2(C)O[C@@]3(O)[C@@H]4CCCN4C(=O)[C@H](Cc4ccccc4)N3C2=O)C[C@@H]2c3cccc4[nH]cc(c34)C[C@H]21 [DHE, Dihydroergotamine] |  | reduced | improves drug absorption characteristics | ~16% | greatly increases the solubility |
